Laboratory results published in patent US8552005B2, “(EN) 3-sulfonyl-pyrazolo[1,5-a] pyrimidines / antagonists of serotonin 5-HT6 receptors, methods for the production and the use thereof” (Avincuro Pharmaceuticals, Inc., priority 2008, dated 2013).
pIC50, pKi: −log10 of the molar value.

What was measured:
5-HT6 receptor [1] = biological target: T1, 5-HT6 receptor (Homo sapiens (Human), UniProt P50406); assay: Antagonistic activity towards 5-HT6 receptors: inhibition of serotonin-induced intracellular cAMP (LANCE cAMP) in HEK 293 cells; assay type: cell-based; conditions: for inhibition at 10 µM: HEK293, read-out: % inhibition of 5-HT6 receptors (I, %), 10 μM solutions, serotonin-induced cAMP; for pIC50: serotonin-stimulated intracellular cAMP production, read-out: IC50 in the setting of functional assay
Procedure: Determination of antagonistic activity of compounds of general formula 1 towards 5-HT6 receptors. Compounds of general formula 1 were tested for their ability to prevent 5-HT6 receptor activation by serotonin. HEK 293 cells (cells of human embryo's kidney) with artificially expressed 5-HT6 receptor, activation of which by serotonin leads to increasing the concentration of intracellular cAMP were used. The content of intracellular cAMP was determined using reagent kit LANCE cAMP (PerkinElmer) according to the method described by the manufacturer of the kit [http://las.perkinelmer.com/content/Manuals/MAN_LANCEcAMP384KitUser.pdf].
Effectiveness of compounds was estimated by their ability to reduce the content of intracellular cAMP induced by serotonin.

5-HT6 receptor [2] = biological target: T1, 5-HT6 receptor; assay: Competitive radioligand binding ([3H] Lysergic acid diethylamide) to serotonin 5-HT6 receptors, HeLa cell membranes; conditions: 1.5 nM [3H] Lysergic acid diethylamide, 120 min at 37° C.; for pIC50: read-out: IC50 in the setting of competitive binding; for pKi: read-out: Ki in the setting of competitive binding
Procedure: Determination of activity of serotonin 5-HT6 receptor antagonists of the general formula 1 in the setting of competitive binding to serotonin 5-HT6 receptors.
Screening of disclosed compounds for their potential ability to interact with serotonin 5-HT6 receptor was carried out by method of radioligand binding. For this purpose membrane species were prepared from expressing recombinant human 5-HT6 receptor HeLa cells by means of their homogenization in glass homogenizer with subsequent separation of plasmatic membranes from cell nucli, mitochondria's and cell wreckages by differential centrifugation. […] Mol. Pharmacol. 43:320-327, 1993]. […] After incubation the samples were filtered in vacuo on glass-microfiber filters G/F (Millipor, USA), filters were washed three times with cold solution of medium and radioactivity was measured by scintillation counter MicroBeta 340 (PerkinElmer, USA). […] Binding of tested compounds to the receptor was determined by their ability to displace the radioligand and expressed in percent of displacement. The percent of displacement was calculated according to the following equation:
[formula] wherein: TA—was overall radioactivity in the presence of radioligand only, CA—was radioactivity in the presence of radioligand and tested compound and NA—was radioactivity in the presence of radioligand and Serotonin (5 μM).

T1 sequence (P50406 whole entry): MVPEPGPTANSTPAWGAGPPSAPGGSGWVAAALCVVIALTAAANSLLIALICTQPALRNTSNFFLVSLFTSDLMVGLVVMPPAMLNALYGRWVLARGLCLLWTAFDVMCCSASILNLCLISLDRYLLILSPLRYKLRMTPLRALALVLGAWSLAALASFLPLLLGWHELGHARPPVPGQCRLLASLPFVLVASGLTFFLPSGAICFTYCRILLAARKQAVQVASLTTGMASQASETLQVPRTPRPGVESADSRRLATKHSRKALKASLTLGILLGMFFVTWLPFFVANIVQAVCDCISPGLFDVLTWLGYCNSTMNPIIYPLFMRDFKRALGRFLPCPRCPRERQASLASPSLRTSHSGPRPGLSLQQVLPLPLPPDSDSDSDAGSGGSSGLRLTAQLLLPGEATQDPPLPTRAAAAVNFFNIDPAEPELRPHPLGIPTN

Compound	inhibition at 10 µM (5-HT6 receptor [1])	pIC50 (5-HT6 receptor [2])	pKi (5-HT6 receptor [2])	pIC50 (5-HT6 receptor [1])
CSc1nn2c(-c3ccccc3)cc(C)nc2c1S(=O)(=O)c1ccccc1 [1(1)]	88%	–	–	–
Cc1cc(C)n2nc(C)c(S(=O)(=O)c3ccncc3)c2n1 [1(2)]	77%	–	–	–
Cc1cc(C)n2nc(C)c(S(=O)(=O)c3cccnc3)c2n1 [1(3)]	78%	–	–	–
Cc1cc(C)n2nc(C)c(S(=O)(=O)c3cccs3)c2n1 [1(4)]	69%	–	–	–
CSc1nn2c(C)cc(-c3ccccc3)nc2c1S(=O)(=O)c1ccccc1 [1(5)]	68%	–	–	–
Cc1cc(C)n2ncc(S(=O)(=O)c3ccccc3)c2n1 [1.1(1), 5,7-dimethyl-3-(phenylsulfonyl)pyrazolo[1,5-a]pyrimidine]	78%	6.29	6.63	< 6.00
Cc1cc(C)n2nc(OCCO)c(S(=O)(=O)c3ccccc3)c2n1 [1.1(2)]	82%	6.32	6.65	–
Cc1cc(C)n2nc(OCCO)c(S(=O)(=O)c3ccc(F)cc3)c2n1 [1.1(4)]	73%	–	–	–
CSc1nn2c(C)cc(C)nc2c1S(=O)(=O)c1ccccc1 [1.1(5), 5,7-dimethyl-2-methylsulfanyl-3-(phenylsulfonyl)pyrazolo[1,5-a]pyrimidine]	104%	8.34	8.67	7.52
CCSc1nn2c(C)cc(C)nc2c1S(=O)(=O)c1ccccc1 [1.1(6), 5,7-dimethyl-2-ethylsulfanyl-3-(phenylsulfonyl)pyrazolo[1,5-a]pyrimidine]	104%	–	–	7.30
CSc1nn2c(C)cc(C)nc2c1S(=O)(=O)c1ccc(F)cc1 [1.1(7), 5,7-dimethyl-2-methylsulfanyl-3-(4-fluorophenylsulfonyl)pyrazolo[1,5-a]pyrimidine]	101%	> 8.00	–	6.95
CCSc1nn2c(C)cc(C)nc2c1S(=O)(=O)c1ccc(F)cc1 [1.1(8), 5,7-dimethyl-2-ethylsulfanyl-3-(4-fluorophenylsulfonyl)pyrazolo[1,5-a]pyrimidine]	102%	–	–	–
CSc1nn2c(C)cc(C)nc2c1S(=O)(=O)c1cccc(F)c1 [1.1(9), 5,7-dimethyl-2-methylsulfanyl-3-(3-fluorophenylsulfonyl)pyrazolo[1,5-a]pyrimidine]	100%	–	–	7.60
CCSc1nn2c(C)cc(C)nc2c1S(=O)(=O)c1cccc(F)c1 [1.1(10), 5,7-dimethyl-2-ethylsulfanyl-3-(3-fluorophenylsulfonyl)pyrazolo[1,5-a]pyrimidine]	103%	–	–	–
CSc1nn2c(C)cc(C)nc2c1S(=O)(=O)c1cccc(Cl)c1 [1.1(11), 5,7-dimethyl-2-methylsulfanyl-3-(3-chlorophenylsulfonyl)pyrazolo[1,5-a]pyrimidine]	101%	–	–	7.70
CCSc1nn2c(C)cc(C)nc2c1S(=O)(=O)c1cccc(Cl)c1 [1.1(12), 5,7-dimethyl-2-ethylsulfanyl-3-(3-chlorophenylsulfonyl)pyrazolo[1,5-a]pyrimidine]	101%	–	–	–
Cc1cc(C)n2nc(C)c(S(=O)(=O)c3ccccc3)c2n1 [1.1(13)]	86%	6.83	7.16	–
Cc1cc(C)n2nc(C)c(S(=O)(=O)c3cccc(F)c3)c2n1 [1.1(14)]	88%	–	–	–
CCSc1nn2c(C)cc(C)nc2c1S(=O)(=O)c1ccc(C)cc1 [1.1(15)]	99%	–	–	7.10
CSc1nn2c(C)cc(C)nc2c1S(=O)(=O)c1ccc(Cl)cc1 [1.1(16)]	94%	–	–	6.64
COc1ccc(S(=O)(=O)c2c(SC)nn3c(C)cc(C)nc23)cc1 [1.1(17)]	65.4%	–	–	6.36
CCSc1nn2c(C)cc(C)nc2c1S(=O)(=O)c1ccc(OC)cc1 [1.1(18)]	61%	–	–	6.49
CSc1nn2c(C)cc(C)nc2c1S(=O)(=O)c1ccc(N(C)C)cc1 [1.1(19)]	87%	–	–	–
CSc1nn2c(C)cc(C)nc2c1S(=O)(=O)c1ccc(F)c(Cl)c1 [1.1(20)]	100%	–	–	–
Cc1cc(C)n2nc(C)c(S(=O)(=O)c3ccc(F)cc3)c2n1 [1.1(21)]	78%	–	–	–
Cc1cc(C)n2nc(OCCN(C)C)c(S(=O)(=O)c3ccccc3)c2n1 [1.1(22)]	66%	–	–	–
